Tests used:
5α-reductase 2 = target: T1, 5α-reductase 2 (Homo sapiens, UniProt P31213); assay: Inhibition of type 2 5α-reductase (14C-testosterone to DHT conversion, lysate of transfected COS7 cells); format: biochemical; settings: for IC50: pH 5.5 citrate buffer, 1 nM 14C-testosterone, 5 mM NADPH, 50 minutes at 37° C., read-out: 5α-reductases: IC50 Type II; for specificity for the type 2 5α-reductase (in words): type 2 versus type 1
T1 construct: made in house; host or cells: COS7 cells (ATCC, CRL 1651), transient transfection with pSG5; 100,000 x g pellet of the lysate
T1 sequence (P31213 1-254): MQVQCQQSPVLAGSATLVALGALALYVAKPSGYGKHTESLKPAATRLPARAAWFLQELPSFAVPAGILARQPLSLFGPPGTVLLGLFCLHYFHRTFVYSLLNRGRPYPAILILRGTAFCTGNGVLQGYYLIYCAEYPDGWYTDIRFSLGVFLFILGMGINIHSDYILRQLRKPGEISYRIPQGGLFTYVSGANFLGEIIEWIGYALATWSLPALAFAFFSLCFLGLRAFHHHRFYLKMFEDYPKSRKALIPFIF
Text: (§1) The coding sequences (complementary deoxyribonucleic acids: cDNA) of 5α-reductase 1 and of 5α-reductase 2 were cloned in the eukaryotic expression vector pSG5 (Stratagene). The enzymes were over-expressed after transient transfection of COS7 cells (ATCC, CRL 1651). The cDNAs of 5α-reductase 1 and of 5α-reductase 2 were obtained by reverse transcription and polymerase chain reaction (PCR) using specific primers, starting with total RNA from human testicles (sold by the company Clontech).
The primers used to obtain the 5α-reductase 2 cDNA are:
+ strand: 5′ GCGATGCAGGTTCAGTG 3′
− strand: 5′ ATTGTGGGAGCTCTGCT 3′.
(§2) By standard genetic engineering techniques, the 5α-reductase 1 cDNA obtained was inserted into the BamHI site of pSG5 and that of 5α-reductase 2 was inserted into the EcoRI site (see Maniatis et al., Molecular Cloning, Cold Spring Harbor, 1989).
(§3) The positive clones (recombinants) were identified by the hybridization technique with a cold probe (Plex luminescent kits, Millipore) and mapped by enzymatic digestions and partial sequencing.
(§4) After transient transfection, the COS7 cells are lysed in a 10 mM Tris-HCl, pH=7/150 mM KCl/1 mM EDTA buffer by 3 cycles of freezing/thawing. The homogenate is centrifuged at 100,000× g for 1 hour. The pellets containing the 5α-reductase 1 or the 5α-reductase 2 are taken up in a 40 mM, pH 6.5 phosphate buffer or a 40 mM, pH 5.5 citrate buffer for the 5α-reductase 1 or 5α-reductase 2, respectively.
(§5) 5 μg of proteins thus obtained are incubated in a well of a 96-well plate (NUNC) in the presence of 1 nM ^14C-testosterone (Amersham) and 5 mM nicotinamide […] dinucleotide phosphate, reduced form (NADPH) (Sigma) in the corresponding buffer (40 mM, pH 6.5 phosphate buffer or 40 mM, pH 5.5 citrate buffer for the 5α-reductase 1 or 5α-reductase 2, respectively) for 50 minutes at 37° C. after addition of the test products. The test products are added at concentrations of 10^−4 M to 10^−10 M, diluted in 40 mM, pH 6.5 phosphate buffer or 40 mM, pH 5.5 citrate buffer for the 5α-reductase 1 or 5α-reductase 2, respectively.
(§6) The reaction mixtures are then placed directly on a silica plate (HPTLC, 60F 254, Merck) and subjected to chromatography (solvent=10% diethyl ether, 90% dichloromethane). They are then analysed by digital autoradiography (Berthold).
(§7) The inhibition of the activity of the isoenzymes is measured by calculating the percentage of dihydrotestosterone formed from ^14C-testosterone relative to an untreated control.

5α-reductase 1 = target: T2, 5α-reductase 1 (Homo sapiens, UniProt P18405); assay: Inhibition of type 1 5α-reductase (14C-testosterone to DHT conversion, lysate of transfected COS7 cells); format: biochemical; settings: for IC50: pH 6.5 phosphate buffer, 1 nM 14C-testosterone, 5 mM NADPH, 50 minutes at 37° C., read-out: 5α-reductases: IC50 Type I; for quality as inhibitor of 5α-reductase (in words): statement covers both types of 5α-reductase; for specificity with respect to type 1 5α-reductase (in words): type 1 versus type 2
T2 construct: made in house; host or cells: COS7 cells (ATCC, CRL 1651), transient transfection with pSG5; 100,000 x g pellet of the lysate
T2 sequence (P18405 1-259): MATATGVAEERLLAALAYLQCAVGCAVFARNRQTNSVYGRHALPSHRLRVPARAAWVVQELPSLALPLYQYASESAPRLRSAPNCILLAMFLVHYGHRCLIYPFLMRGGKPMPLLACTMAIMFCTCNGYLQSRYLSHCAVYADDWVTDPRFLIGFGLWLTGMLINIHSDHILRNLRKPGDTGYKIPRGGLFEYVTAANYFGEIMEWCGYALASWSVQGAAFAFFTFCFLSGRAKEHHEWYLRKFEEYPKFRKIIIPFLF
Text: as §1
The primers used to obtain the 5α-reductase 1 cDNA are:
+ strand: 5′ […] 3′,
− strand: 5′ […] 3′.
as §2, §3, §4, §5, §6, §7

SMILES | IC50 (5α-reductase 2) | IC50 (5α-reductase 1) | quality as inhibitor of 5α-reductase (in words) (5α-reductase 1) | specificity with respect to type 1 5α-reductase (in words) (5α-reductase 1) | specificity for the type 2 5α-reductase (in words) (5α-reductase 2)
Cc1c(C(=O)O)[nH]c2cc(OCc3ccccc3)c(OCc3ccccc3)cc12 [Compound b, 5,6-bis(benzyloxy)-3-methyl-1H-indole-2-carboxylic acid] | 1 µM | > 100 µM | moderate inhibitor | more pronounced specificity for the type 1 5α-reductase | 
COc1cc(OCc2ccccc2)c2cc(C(=O)O)[nH]c2c1 [Example 1, 4-benzyloxy-6-methoxy-1H-indole-2-carboxylic acid] | > 100 µM | 1 to 4 µM |  | very pronounced specificity with respect to type 1 5α-reductase | 
COc1cc(OCc2cc(C(F)(F)F)cc(C(F)(F)F)c2)c2cc(C(=O)O)[nH]c2c1 [Example 2, 4-[3,5-bis(trifluoromethyl)benzyloxy]-6-methoxy-1H-indole-2-carboxylic acid] | > 100 µM | 10 µM |  | very pronounced specificity with respect to type 1 5α-reductase | 
COc1cc2[nH]c(C(=O)O)cc2cc1OCc1cc(C(F)(F)F)cc(C(F)(F)F)c1 [Example 3, 5-[3,5-bis(trifluoromethyl)benzyloxy]-6-methoxy-1H-indole-2-carboxylic Acid] | 0.001 to 0.005 µM | 0.5 µM | very good inhibitors of the two types of 5α-reductase |  | 
COc1cc2[nH]c(C(=O)O)cc2cc1OCc1cc(OC)c(OC)c(OC)c1 [Example 4, 5-(3,4,5-trimethoxybenzyloxy)-6-methoxy-1H-indole-2-carboxylic acid] | 0.01 µM | > 100 µM |  |  | more pronounced specificity for the type 2 5α-reductase
COc1ccc(COc2cc3cc(C(=O)O)[nH]c3cc2OC)cc1 [Example 5, 5-(4-methoxybenzyloxy)-6-methoxy-1H-indole-2-carboxylic acid] | 0.01 µM | 1 to 5 µM | very good inhibitors of the two types of 5α-reductase |  | 
COc1cc2[nH]c(C(=O)O)cc2cc1OCc1ccc(C#N)cc1 [Example 6, 5-(4-cyanobenzyloxy)-6-methoxy-1H-indole-2-carboxylic acid] | 0.04 µM | 5 µM | very good inhibitors of the two types of 5α-reductase |  | 
O=C(O)c1cc2c(ccc3ccccc32)[nH]1 [Example 7, 3H-benz[e]indole-2-carboxylic acid] | 6 µM | 3 µM |  | pronounced specificity with respect to type 1 5α-reductase | 
Cn1c(C(=O)O)cc2c3ccccc3ccc21 [Example 8, 3-methyl-3H-benz[e]indole-2-carboxylic Acid] | 10 µM | 0.5 µM |  | pronounced specificity with respect to type 1 5α-reductase | 
COc1cc2[nH]c(C(=O)O)cc2cc1OCc1ccccc1 [a, 5-benzyloxy-6-methoxy-1H-indole-2-carboxylic acid] | 0.001 µM | 1 µM | very good inhibitors of the two types of 5α-reductase |  | 
O=C(O)c1cc2cc(OCc3ccccc3)c(OCc3ccccc3)cc2[nH]1 [c, 5,6-bis(benzyloxy)-1H-indole-2-carboxylic acid] | 0.005 µM | > 100 µM |  |  | more pronounced specificity for the type 2 5α-reductase

Reference: patent US6596753B2, “Compounds of the indolecarboxylic family and use thereof” (Societe L'Oreal S.A., priority 1997, dated 2003)
